# Laboratory results from patent US20100075360A1, “UV BASED CELL VIABILITY AS AN INDICATOR OF SUN PROTECTION FACTOR AND METHODS OF MEASUREMENT THEREOF” (priority 2008, published 2010).
# Read-outs that look alike come from different tables or passages of the source.
# How the values were obtained:
# [1] = system: Swiss 3T3 fibroblast cells
# Method: Swiss 3T3 Mouse fibroblast cells and HaCAT Human keratinocytes were obtained from ATCC and cultured in DMEM medium supplemented with 10% FBS. The confluent cultures are harvested by trypsinization and expanded during two more passages before they were used for the experiments. Medium and other culture components were renewed after 48-72 h. All cell cultures were maintained in a humidified atmosphere at 37° C. in 95% air and 5% CO2.
# UV lamp of 14.7 W, 0.3 A, 55V with an intensity of 33.3 μW/cm^2 from Sankyo Denki Co., Ltd.
# The neutral red (NR) uptake assay: The NR cytotoxicity assay procedure is a cell survival/viability chemosensitivity assay, based on the ability of viable cells to incorporate and bind neutral red, a supravital dye. NR is a weak cationic dye that readily penetrates cell membranes by non-ionic diffusion, accumulating intracellularly in lysosomes, where it binds with anionic sites in the lysosomal matrix. Alterations of the cell surface or the sensitive lysosomal membrane lead to lysosomal fragility and other changes that gradually become irreversible. Such changes brought about by UV exposure result in a decreased uptake and binding of NR. It is thus possible to distinguish between viable, damaged, or dead cells, which are the basis of this assay. The dye taken up by the cells is subsequently extracted and measured. The dye was dissolved in distilled water at a concentration of 0.5 mg/100 μl. 80 μl of this stock solution was dissolved in 15 ml of pre warmed DMEM medium. The developer solution consists of 25 ml of water, 24.5 ml of ethanol and 0.5 ml of glacial acetic acid. The NRU dye and the developer solutions are to be made fresh before use. After UV exposure and consequent incubation for 72 hrs, the culture medium is replaced with NRU dye and incubated for 3 hrs at 37° C., after which the dye is washed off thrice with PBS. The dye is dissolved in 100 μl of developer solution and incubated at RT for 20 min. The OD was determined at 492 nm using a microplate reader.
# Swiss 3T3 fibroblasts were plated in a 96 well micropipette at a seeding density of 3000 cells per well. […] After exposure, the cells were incubated in a CO2 incubator for 48 hrs and developed by the NRU staining technique to analyze the cell viability. The SPF of 1.25% OMC was determined with respect to the untreated cells.
# [2] = system: Swiss 3T3 fibroblast cells; test: Percentage of UV protection in Swiss 3T3 fibroblast cells (NRU staining); type: cell-based, mouse; details: UV B 5 minutes
# Method: The unexposed region of the plate was covered by aluminum foil. […] The percentage of UV protection was calculated with respect to unexposed cells.
smiles,measurement,setting,value
"CCCCC(CC)COC(=O)C=Cc1ccc(OC)cc1 (stereo not shown) [OMC, Octyl methoxy cinnamate]",minimal cytotoxic dose (MCDp) for protected cells,[1]; 1.25% OMC,0.144 J/cm^2
same,% UV toxicity,"[1]; 1.25% OMC, UV dosage 0.0072 J/cm^2",0%
same,% UV toxicity,"[1]; 1.25% OMC, UV dosage 0.0216 J/cm^2",0%
same,% UV toxicity,"[1]; 1.25% OMC, UV dosage 0.036 J/cm^2",0%
same,% UV toxicity,"[1]; 1.25% OMC, UV dosage 0.0504 J/cm^2",0%
same,% UV toxicity,"[1]; 1.25% OMC, UV dosage 0.072 J/cm^2",0%
same,% UV toxicity,"[1]; 1.25% OMC, UV dosage 0.216 J/cm^2",39.62%
same,minimal cytotoxic dose (MCDp) for protected cells,[1]; 7% OMC,0.54 J/cm^2
same,SPF (MCDp/MCDu),"[1]; 7% OMC, MCDu 0.0216 J/cm^2",25
same,% UV toxicity,"[1]; 7% OMC, UV dosage 0.0072 J/cm^2",0%
same,% UV toxicity,"[1]; 7% OMC, UV dosage 0.0216 J/cm^2",0%
same,% UV toxicity,"[1]; 7% OMC, UV dosage 0.036 J/cm^2",0%
same,% UV toxicity,"[1]; 7% OMC, UV dosage 0.0504 J/cm^2",0%
same,% UV toxicity,"[1]; 7% OMC, UV dosage 0.072 J/cm^2",0%
same,% UV toxicity,"[1]; 7% OMC, UV dosage 0.18 J/cm^2",0%
same,% UV toxicity,"[1]; 7% OMC, UV dosage 0.432 J/cm^2",0%
same,% UV toxicity,"[1]; 7% OMC, UV dosage 0.54 J/cm^2",7%
same,% UV toxicity,"[1]; 7% OMC, UV dosage 0.648 J/cm^2",9%
same,% UV protection,"[2]; 0.15% OMC in culture medium, vs unexposed cells",56%
same,% UV protection,[2]; 0.31% OMC in culture medium,71%
same,% UV protection,[2]; 0.62% OMC in culture medium,77%
same,% UV protection,[2]; 1.25% OMC in culture medium,90%
